Converted amounts (≈) assume the structure as drawn. Values belong to the molecule of their own block, whether it stands above or below them.
Legend:
[1] = pure PBS pH 7.4; cited from earlier work
[2] = logP (octanol-water partition) by shake tube method; format: physicochemical; details: read-out: Calculated LogP
[3] = Drug solubility in different release media (PBS with Tween 80 or SDS); format: physicochemical; details: release media (PBS with Tween 80 or SDS), 37 °C, pH 7.4, aqueous with cosolvent or surfactant or cyclodextrin, thermodynamic from solid
Experimental: Mikkelsen, L. M., Enzyme solubility in liquid detergent and use of detergent composition. […] Crotts, G.; Park, T. G. Protein delivery from poly(lactic-co-glycolic acid) biodegradable microspheres: Release kinetics and stability issues. […] FDA.
The solutions were centrifuged at 8000 rpm for 10 minutes, and a 1 ml aliquot was withdrawn, filtered through a 0.45 μm nylon membrane, and analyzed by HPLC.

[4] = test system: L929 mouse fibroblast cells
Method: Cytotoxicity evaluation: CPs were incubated in culture media at a surface area to volume ratio of 1.25 cm^2/mL for 48 h. […] The L929 fibroblast cells were cultured and routinely maintained in Dulbecco's modified Eagle's medium (DMEM) supplemented with 10% fetal bovine serum (FBS) and 1% penicillin-streptomycin. The cells were grown in a monolayer in tissue culture flasks incubated at 37° C. and 5% CO2 at 90% relative humidity. Cells were counted and seeded in 96-well plates at a density of 2000 cells/well, which was determined to be the optimum cell density. After 24 h incubation, growth media was aspirated and replaced with either 150 μL CPs extracts at a surface area to volume ratio of 1.25 cm^2/mL or the same volume of extraction media that had been serially diluted to the above concentrations. Following 24, 48, and 72 h incubation periods, cell viability was evaluated using the MTS assay. Specifically, the extraction media was aspirated and replaced with 200 μL of fresh media followed by 20 μL of MTS reagent, and the cells were incubated at 37° C. for 1.5 h. Cell viability was measured by optical absorbance at 2=490 nm using a Cytation™ 5 Cell Imaging Multi-Mode Reader (BioTek, Vermont). […]
The cytotoxicities of the cross-linked matrices were evaluated in L929 mouse fibroblast cells using the extraction dilution method (FIG. 16).

[5] = Extraction and recovery of Drug X from discs and microparticles (stability in polymer matrix); format: physicochemical
Experimental: In Table 53, a study was conducted in which a Drug X-loaded disc was placed in 10 mL of dichloromethane (DCM) for 8 hr at room temperature to extract Drug X, and DCM was removed using a rotary evaporator at 25° C. This extraction process was repeated two times. The extracted drug dissolved in a acetonitrile (ACN) was filtered using 0.45 μm a nylon membrane and measured by HPLC for extraction efficiency.
(§1) Method: Drug X-loaded microparticle in release media will be taken after 1 hrs and utilized to extract residue Drug X from microparticle.
We took out a disc after 2 weeks of release and freeze fried it. Then, the residual Drug X remaining in discs was extracted using dichloromethane to confirm Drug X stability in the disc.

[6] = In vitro drug release from microparticles; format: physicochemical
Excerpt: There is no significant difference with Mesh, NaCl, and EtOH for release rate. Drug X loaded MPs show insufficient washing (high t=0) and burst release in a day.
Method: We will use a dialysis bag to properly change release media without loss of microparticle. This will prevent accumulation of Drug X degradation over time and allow more accurate release analysis. We will examine release with Drug X-loaded microparticle in different media (i.e. only PBS at pH 7.5).
as §1

[7] = cited from earlier work
[8] = Solubility of Drug X in organic solvents and water; format: physicochemical
blood plasma protein = details: cited from earlier work

logP [2]: 2.3 | solubility at 48 h [3]: 287 ± 56.9 µg/mL (≈ 661 µM)
Molecule: CC1(C)O[C@@H]2C[C@H]3[C@@H]4CCC5=CC(=O)C=C[C@]5(C)[C@@]4(F)[C@@H](O)C[C@]3(C)[C@]2(C(=O)CO)O1 [Triamcinolone acetonide, triamcinolone acetonide]
TAA solubility [1]: 2.1 µg/mL

Molecule: high density polyethylene [HDPE]
decrease in cell viability relative to the untreated control [4]: approximately 66%

Molecule: CC(C)OC(=O)[C@H](C)N[P@](=O)(CO[C@H](C)Cn1cnc2c(N)ncnc21)Oc1ccccc1 [Drug X]
degradation (second HPLC peak) in release and extraction samples ([5]; 1 hr time point, microparticles): no second peak detected | Drug X recovered from the extraction ([5]; after two-day release): ~35% | drug recovered from the discs (release & extraction) ([5]; disc after 2 weeks of release, dichloromethane extraction): 88-93% | Drug X released ([5]; during the two-day release): ~50% | extraction efficiency ([5]; in the disc): 85% | total recovered of the encapsulated Drug X ([5]; release plus extraction): 83%-90% | time within which most of Drug X is released from MP [6]: ≤ 1 h | Drug X remained inside the MP after extraction ([6]; after 1 hr release): around 100 μg | Log P [7]: 1.6 | Water solubility [7]: (4.86 mg/mL) | Water solubility (words) [7]: Soluble in water | pKa [7]: 2.74 | Solubility in EtOH/DMSO (50/50) ([8]; 5 mg per 100 mL or μL): Soluble, and | Solubility in DMSO/Water (50/50) ([8]; 5 mg per 200 mL or μL): Insoluble | Solubility in Water ([8]; 5 mg per 200 mL or μL): Insoluble | bound to blood plasma protein (blood plasma protein): 80%

Reference: US20240368351A1, “FACTORS CONTROLLING DRUG RELEASE IN CROSS-LINKED POLY(VALEROLACTONE) BASED MATRICES” (Pendant Biosciences, Inc., priority 2019, published 2024)
